Columns and labels:
[1] = system: wildtype and Mecp2 null mice; assay: Whole-body plethysmography of respiratory function after CX546 treatment; type: in vivo, mouse; conditions: for effect on breathing frequency and minute volume/weight: CX546 40 mg/kg b.i.d. 3 days; for breathing frequency / Coefficient of variation of breathing frequency / minute volume/weight / tidal volume/weight: CX546 40 mg/kg i.p. b.i.d. 3 days; for breathing frequency: 18-24 h after last injection
Method: (§1) Beginning on P25, wildtype and Mecp2 null littermates were acclimatized to the injection protocol to reduce stress, first by handling for 10 min./day for 3 days, followed by saline injections (0.9% NaCl, i.p., b.i.d.) at 8:00 AM and 8:00 PM, for an additional 3 days. Subsequently, mice were assigned either to drug treatment (CX546, 40 mg/kg in 16.5% 2-hydroxypropyl-β-cyclodextrin, i.p., b.i.d.) or vehicle injections (cyclodextrin alone). On the day of their last injection, mice were trained in the plethysmograph recording chamber for one hour. Eighteen to 24 hours after their last injection, on P35, mice were returned to the chamber for recording of respiratory activity.
(§2) Breathing was recorded in unrestrained mice using a whole-body flow plethysmograph (Buxco II; Buxco Research Systems, Wilmington, N.C.) in which a constant bias flow supply connected to the animal recording chamber ensured continuous inflow of fresh air (1 L/min.). Ambient temperature was maintained between 23 and 25° C. Breathing traces were analyzed using Biosystem XA software (Buxco Research Systems). After the recording sessions, mice were euthanized with CO2 and tissue processed for BDNF immunoassay.
(§3) Wildtype and Mecp2 null littermates were treated for 3 days with CX546 (40 mg/kg in cyclodextrin, i.p., b.i.d.) or vehicle. Respiratory function was monitored by whole-body plethysmography 18-24 hours after the last injection, as described in Methods. At the end of the recording session the mice were sacrificed and the NG removed for BDNF ELISA. […] Treatment of wildtype mice with CX546 had no effect on NO BDNF content.

[2] = in vivo; cited from earlier work
[3] = system: BDNF protein in nodose ganglion (NG); assay: BDNF ELISA of intact nodose ganglion after in vivo CX546 treatment; design: species or system mouse; conditions: CX546 40 mg/kg i.p. b.i.d. 3 days; for NG BDNF content: mean±SEM, n=6
Method: as §1, §2
BDNF protein levels in intact NG or in cultured NG cells were measured by ELISA using the BDNF Emax Immunoassay System (Promega). Protein extracts from one intact NG or from an equivalent number of cultured cells were used for ELISA.
as §3

| Structure (SMILES) | effect on breathing frequency and minute volume/weight ([1]; P35 Mecp2 null mice) | breathing frequency ([1]; P35 Mecp2 null mice, n=9) | Coefficient of variation of breathing frequency ([1]; P35 Mecp2 null mice, n=9) | minute volume/weight ([1]; P35 Mecp2 null mice, n=9) | tidal volume/weight ([1]; P35 Mecp2 null mice, n=9) | breathing frequency ([1]; P35 wildtype mice, n=7) | Coefficient of variation of breathing frequency ([1]; P35 wildtype mice, n=7) | minute volume/weight ([1]; P35 wildtype mice, n=7) | tidal volume/weight ([1]; P35 wildtype mice, n=7) | effect on breathing frequency and minute volume/weight ([1]; wildtype mice) | half-life [2] | increase in BDNF protein content compared to vehicle-treated mutants ([3]; P35 Mecp2 null mice) | NG BDNF content ([3]; P35 Mecp2 null mice) | NG BDNF content ([3]; P35 wildtype mice) | effect on NG BDNF content ([3]; wildtype mice) | BDNF protein compared to unstimulated controls (NG neurons) |
| --- | --- | --- | --- | --- | --- | --- | --- | --- | --- | --- | --- | --- | --- | --- | --- | --- |
| O=C(c1ccc2c(c1)OCCO2)N1CCCCC1 [CX546, 1-(1,4-benzodioxan-6-ylcarbonyl)piperidine] | completely restores wildtype frequency and minute volume/weight | 176±8 breath/min. | 23.4±1.5% | 1.13 ± 0.07 mL/min/g | 6.5 ± 0.3 µL/g | 177±6 breath/min. | 18.5±1.2% | 1.14 ± 0.09 mL/min/g | 6.4 ± 0.5 µL/g | no effect | less than an hour | 42% | 114±4 pg BDNF/mL | 167±5 pg BDNF/mL | no effect | – |
| [Cl-].[K+] [KCI, potassium chloride] | – | – | – | – | – | – | – | – | – | – | – | – | – | – | – | significant increase |
